From PMC12040169 (PLOS Biology, 2025)

assay: in vitro; conditions: human, hela cells, % viability

Row | Compound | viability at 28.5 h, 10 µM
1 | O=C(NCc1cccnc1)c1csc2c1CCCC2 [CBK305029] | 86.4%
2 | CCCc1cc(O)nc(SC(C)C(=O)N2CCOCC2)n1 (centres unmarked) [CBK305030] | 86%
3 | CCC(C)NC(=O)CN1CCN(Cn2nnc3ccccc3c2=O)CC1 (centres unmarked) [CBK305032] | 100%
4 | COCCNC(=O)c1cc(-c2ccc(C)cc2)nc2c1cnn2C(C)C [CBK305033] | 93.8%
5 | C#CCNC(=O)N1CCC(c2c[nH]c3ccccc23)CC1 [CBK305034] | 87.4%
6 | CCCCN(CC)S(=O)(=O)c1ccc(-n2ncc(Cl)c(Cl)c2=O)cc1 [CBK305036] | 6.38%
7 | Cc1cccc(C(=O)N2CCN(Cc3cc(=O)n4ccsc4n3)CC2)c1 [CBK305037] | 91%
8 | CCC1CCCCN1S(=O)(=O)c1ccc(-n2ncc(Cl)c(Cl)c2=O)cc1 (centres unmarked) [CBK305038] | 13.9%
9 | Cn1cnnc1CNC(=O)N1CCN(Cc2cccs2)CC1 [CBK305045] | 86.3%
10 | CNS(=O)(=O)c1cc(C(=O)NC2CCCc3ccccc32)n(C)c1 (centres unmarked) [CBK305048] | 103%
11 | CCCCN(C)C(=O)Cn1nc(C)c2ccccc2c1=O [CBK305050] | 81.4%
12 | COCCNC(=O)c1cc(-c2ccc(C)s2)nc2c1cnn2C(C)C [CBK305051] | 105%
13 | COCCNC(=O)c1cc(-c2cc(C)oc2C)nc2c1cnn2C(C)C [CBK305052] | 101%
14 | Cn1ncc2c(=O)n(Cc3noc(-c4ccco4)n3)cnc21 [CBK305053] | 97.1%
15 | CC(=O)Nc1cccc(-n2cnnc2SCC2CCCCC2)c1 [CBK305054] | 96.2%
16 | Cc1ccc(C(=O)N2CCN(Cc3cc(=O)n4ccsc4n3)CC2)cc1 [CBK305057] | 107%
17 | CCNc1nnc(SCCC(=O)N2CCN(c3ccc(F)cc3)CC2)s1 [CBK305058] | 100%
18 | CCCn1cc(NC(=O)NC(CC)(CO)c2ccccc2)ccc1=O (centres unmarked) [CBK305060] | 104%
19 | Cn1cc(CNC(=O)Nc2cccc(CN3CCCCC3=O)c2)cn1 [CBK305062] | 91.4%
20 | Cc1cc(NC(=O)N2CCN(CCNC(=O)C3CCCC3)CC2)no1 [CBK305064] | 100%
21 | Cn1cc(Nc2nc(-c3ccc(CCNS(C)(=O)=O)cc3)cs2)cn1 [CBK305065] | 109%
22 | Cc1nn(-c2ccccc2)c(Cl)c1CN1C(=O)NC2(CCCC2)C1=O [CBK305070] | 91.9%
23 | Cc1ccc(C)c(NC(=O)Cc2nc(CN3CCNC(=O)C3)cs2)c1 [CBK305071] | 96.4%

Row | Compound | viability at 28.5 h, 10 µM
24 | Cc1ccccc1Nc1nc(N)nc(CN2CCCC(C(F)(F)F)C2)n1 (centres unmarked) [CBK305073] | 105%
25 | Cc1nc(COc2ccc(F)cc2)sc1C(=O)O [CBK305074] | 98%
26 | CCOc1ccc2c(c1)CN(CCCc1nc(C)no1)CC2 [CBK305076] | 99.2%
27 | COc1ccc(OCc2ncc(C(C)(C)C)o2)c(C(C)=O)c1 [CBK305079] | 115%
28 | Cc1nc(C)n(CC2CCCN(Cc3ccc(C#N)cc3)C2)n1 (centres unmarked) [CBK305082] | 83.1%
29 | Cc1nc(C)n(CC2CCCN(Cc3ccccc3C#N)C2)n1 (centres unmarked) [CBK305085] | 98.4%
30 | Cc1cc(CN2CCC(N(C)Cc3nnc(C)n3C)C2)no1 (centres unmarked) [CBK305088] | 96.6%
31 | Cc1csc(CNCc2c(C(C)C)nn(C)c2N(C)C)n1 [CBK305089] | 83.7%
32 | CCc1nc(CN2CCOC(c3ccc(F)cc3)C2)cs1 (centres unmarked) [CBK305090] | 89.7%
33 | Cc1ccc(OCC(=O)N2CCCCC2c2nccs2)cc1 (centres unmarked) [CBK305091] | 88.7%
34 | CN(Cc1cnn(C)c1)C(=O)C1CCCN1Cc1ccccn1 (centres unmarked) [CBK305092] | 96%
35 | CC(Cn1cccn1)NCC(=O)N(C)C1(C#N)CCCCC1 (centres unmarked) [CBK305096] | 91.5%
36 | Cc1cnn(C2CN(CC(=O)N3CCc4sccc4C3)C2)c1 [CBK305097] | 86.8%
37 | COCCN1CCCC(NC(C)c2ccc(OC)c(F)c2)C1 (centres unmarked) [CBK305099] | 80.9%
38 | CS(=O)(=O)NC1CCN(C2CCc3c(F)cc(F)cc32)C1 (centres unmarked) [CBK305101] | 90.1%
39 | CCC(C)CS(=O)(=O)c1nc(C)c(C)n1CC1CCCO1 (centres unmarked) [CBK305107] | 114%
40 | CCN1CCOC(CNCc2ccc(OCC(N)=O)cc2)C1 (centres unmarked) [CBK305108] | 96.8%
41 | CCOC(=O)c1cnn(C2CCCN(Cc3ccsc3)C2)c1 (centres unmarked) [CBK305112] | 94.9%
42 | CCOC(=O)c1cnn(C2CCCN(Cc3cnnn3C)C2)c1 (centres unmarked) [CBK305122] | 98.5%
43 | CCc1onc(C)c1C(=O)NCC1CCCCN1CC(C)C (centres unmarked) [CBK305124] | 106%
44 | CCOC(=O)c1cnn(C2CCCN(Cc3cc[nH]n3)C2)c1 (centres unmarked) [CBK305125] | 87.4%
45 | CC(=O)Nc1cccc(CN(C)C(CCO)c2ccccc2)c1 (centres unmarked) [CBK305127] | 95.8%
46 | CC(C)(C)OC(=O)N1CCCC(NCc2ccccn2)CC1 (centres unmarked) [CBK305128] | 106%

Row | Compound | viability at 28.5 h, 10 µM
47 | CC(C)C(CNCc1ccc(F)c(Cl)c1)c1ccnn1C (centres unmarked) [CBK305130] | 82.9%
48 | CCC(NC1CCc2nc(COC)nn2C1)c1ccccc1O (centres unmarked) [CBK305132] | 92.1%
49 | COc1cc(OC)cc(C(=O)N(CCC#N)Cc2ccco2)c1 [CBK305133] | 96.3%
50 | CCN(CC)C(=O)NC(C)c1cccc(S(=O)(=O)NC)c1 (centres unmarked) [CBK305134] | 94.4%
51 | CC(=O)Nc1cccc(CN2CCCC2CC(O)c2ccccc2)c1 (centres unmarked) [CBK305136] | 104%
52 | Cc1nc(S(=O)(=O)CCn2cccn2)n(C2CCCC2)c1C [CBK305138] | 89%
53 | Cc1cc(NC(=O)CN2CCCC2CC(O)c2ccccc2)no1 (centres unmarked) [CBK305139] | 88.8%
54 | O=C(c1cccc2ncccc12)N1CCN(CC2CCOC2)CC1 (centres unmarked) [CBK305140] | 94.3%
55 | Cc1nc(S(=O)(=O)CCn2cccn2)n(CC2CCCO2)c1C (centres unmarked) [CBK305141] | 96.6%
56 | CCn1ncc2c1CCCC2NC1CCN(c2ccccc2)C1=O (centres unmarked) [CBK305144] | 93.6%
57 | O=C(NCCCN1CCCCC1)C1CC(=O)N(Cc2ccco2)C1 (centres unmarked) [CBK305145] | 93.1%
58 | COc1ccc(C(=O)N(C)Cc2cnn(C)c2)cc1Br [CBK305149] | 84.8%
59 | O=C(NCCN1CCCCC1)C1CC(=O)N(Cc2ccccc2)C1 (centres unmarked) [CBK305150] | 96.5%
60 | CC1CN(CCNCc2cn(C)nc2-c2cccnc2)CC(C)O1 (centres unmarked) [CBK305151] | 110%
61 | Cc1cc(C)nc(CCNCc2c(C(C)C)nn(C)c2N(C)C)n1 [CBK305159] | 112%
62 | Cc1nc(CN2CCCC(NCc3ccc4ccccc4c3)C2)no1 (centres unmarked) [CBK305160] | 96.5%
63 | Cc1c(C(=O)N(C)CC(C)C)nnn1-c1ccc2ncccc2c1 [CBK305161] | 102%
64 | CC(=O)Nc1cccc(CN2CCCC2CN2CCCC2CO)c1 (centres unmarked) [CBK305163] | 98.9%
65 | Cc1cccc(CN2CCC(N(C)Cc3nnc(C4CC4)n3C)C2)c1 (centres unmarked) [CBK305165] | 88.5%
66 | Cc1cccn2cc(CCNC(=O)CN3Cc4ccccc4C3)nc12 [CBK305166] | 101%
67 | OC(COCc1ccco1)CN1CCc2sccc2C1C1CC1 (centres unmarked) [CBK305167] | 119%

same assay, conditions: human, hela cells, % viability, bulk resorufin, single well

Row | Compound | viability at 28.5 h, 10 µM
68 | COCCn1cc(C(=O)N2CCN(C)CC2C)c2ccccc21 (centres unmarked) [CBK305123] | 102%
